Laboratory results from article PMC3646166, “Comparison of Aqueous and 1-Octanol Solubility as well as Liquid–Liquid Distribution of Acyclovir Derivatives and Their Complexes with Hydroxypropyl-β-Cyclodextrin” (Journal of Solution Chemistry, 2013).
In brackets after ≈: the same amount, converted by molar mass. Where two headings read alike, the source gives them in different places.

Assays:
Type in all cases: physicochemical
[1] = Extraction experiments, 1-octanol-water partition coefficient; conditions: 25 °C, read-out: Partition coefficient 1-octanol–water, P oc/w (converted)
Description: The equipment described above was also used for the determination of the 1-octanol-water partition coefficients. […] The partition coefficient was evaluated as:1 Poc/w=Coc/Cw where C oc and C w are the molar concentrations of the solute in the 1-octanol and water phases, respectively. The correctness of the P oc/w value of each compound was verified by checking the mass balance of the starting amount of the substance and the total amount of the substance partitioned between the two phases.

[2] = Solubility in water or 1-octanol (saturated solutions, UV-Vis); conditions: for solubility: thermodynamic from solid, water
Description: The sample of substance examined (10 mg or 80 mg for 6-Me-TACV) was placed in a glass ampoule and double-distilled, deionized water (Millipore, Elix 5 purifier), or pure anhydrous 1-octanol (Sigma 99 %) was added. To attain thermodynamic equilibrium, the solute and the solvent were mixed continuously for a minimum of 4 days at a speed of 25 rpm. After the experiment was completed, the sample was centrifuged at 40,000 rpm for 40 min at 25 ± 0.1 °C, the supernatant liquid was collected, diluted, and its concentration determined with a UV–Vis (Varian Carry IE) spectrophotometer. The experiments were repeated at least three times for each solubility.

[3] = Solubility in buffered cyclodextrin solutions (excess method of Higuchi and Connors); parameters: Stability constant K s of HP-β-CD complex: unit not given here
Description: Solubilities of the studied compounds was ensured according to the excess method of Higuchi and Connors. […] An excess amount of compounds 4-9 and 11-12 was added to 1.5 mL of aqueous phosphate buffer (concentration of buffer was equal 0.067 mol·dm^-3) solutions, (pH = 5.5 or 7.0) containing various concentration of HP-β-CD. The cyclodextrin concentration changed in the range of 10^-3 to 2 × 10^-2 mol·dm^-3. The suspensions were shaken in screw-capped plastic vials in a water bath thermostat with the volume of 60 dm^3 (home made apparatus by IChF PAN) at 25 and 37 °C. After 7 days equilibrium was reached and then the suspensions were centrifuged and the absorbance of the studied compounds was measured by UV-Vis spectrophotometry using a Shimadzu UV 2401 PC Spectrometer equipped with a thermostatically controlled cell compartment. During the measurement of absorbance, a buffered-solution of HP-β-CD, of the same concentration as in the studied solution, was always put as the reference. The average values of at least three independent determinations of the absorbance were used for calculation of the concentrations of the particular acyclovir derivatives. […] The main reason for the low solubility of tricyclic acyclovir derivatives with aromatic groups in water is the high hydrophobicity of these substituents. Use of cyclodextrins, which can include aromatic groups into their cavity, may enhance the aqueous solubility of such compounds. For this purpose we used several cyclodextrins and hydroxypropyl-β-cyclodextrin was chosen as being more efficient for complexating the tricyclic acyclovir derivatives. The investigations were performed, for chosen compounds, in various cyclodextrin HP-β-CD, buffered solutions (pH = 5.5 and 7.0) at 25 and 37 °C. […] Values of the correlation parameters a and b for tricyclic acyclovir derivatives complexed by cyclodextrin are presented in Table 3. […] The stability constants of the inclusion complexes between HP-β-CD and acyclovir derivatives have been calculated according to the Higuchi-Connors method using:3 K=b/C0(1-b) where C 0 is the solubility of the sample in solutions without cyclodextrin, obtained by determination of saturated solution concentration of acyclovir derivative solutions. […] These two values can differ, but in our study are very close to each other.

[4] = 25 °C (Table 1), read-out: Solubility in water, C w
[5] = water saturated with 1-octanol, 25 °C, read-out: Solubility in water saturated with 1-octanol, C woc
[6] = 35 °C, read-out: Aqueous solubility, C w
[7] = 45 °C, read-out: Aqueous solubility, C w
[8] = buffered HP-β-CD solutions, pH = 5.5, 25 °C
[9] = buffered HP-β-CD solutions, pH = 5.5, 37 °C
[10] = buffered HP-β-CD solutions, pH = 7.0, 25 °C
[11] = buffered HP-β-CD solutions, pH = 7.0, 37 °C

Row | Compound | logP at 2 days [1] | solubility [2, 4] [mM] | solubility [2, 5] [mM] | solubility [2, 6] [mM] | solubility [2, 7] [mM] | Solubility ratio in 1-octanol and water, C oc/C w ([2]; 25 °C) | Solubility ratio in 1-octanol saturated with water and water saturated with 1-octanol, C ocw/C woc ([2]; 25 °C) | Correlation parameter a (Eq. 2, Cs = a + b·CCD) [3, 8] | Correlation parameter b (Eq. 2, Cs = a + b·CCD) [3, 8] | Correlation parameter a (Eq. 2, Cs = a + b·CCD) [3, 9] | Correlation parameter b (Eq. 2, Cs = a + b·CCD) [3, 9] | Correlation parameter a (Eq. 2, Cs = a + b·CCD) [3, 10] | Correlation parameter b (Eq. 2, Cs = a + b·CCD) [3, 10] | Correlation parameter a (Eq. 2, Cs = a + b·CCD) [3, 11] | Correlation parameter b (Eq. 2, Cs = a + b·CCD) [3, 11] | Stability constant K s of HP-β-CD complex ([3]; pH = 5.5, 25 °C) | Stability constant K s of HP-β-CD complex ([3]; pH = 5.5, 37 °C) | Stability constant K s of HP-β-CD complex ([3]; pH = 7, 25 °C) | Stability constant K s of HP-β-CD complex ([3]; pH = 7, 37 °C) | Type of solubility diagram (solubility versus cyclodextrin concentration) ([3]; buffered HP-β-CD solutions)
1 | Nc1nc2c(ncn2COCCO)c(=O)[nH]1 [Compound 1, 9-[(2-hydroxyethoxy)methyl] guanine, reference compound] | -1.44 | 8.07 (≈ 1820 µg/mL) | 7.44 (≈ 1680 µg/mL) | 16.2 (≈ 3650 µg/mL) | 19.7 (≈ 4440 µg/mL) |  |  |  |  |  |  |  |  |  |  |  |  |  |  | 
2 | Nc1nc2c(nc(Br)n2COCCO)c(=O)[nH]1 [Compound 2, 8-bromo-9-[(2-hydroxyethoxy)methyl] guanine] | -0.264 | 1.03 (≈ 313 µg/mL) | 0.859 (≈ 261 µg/mL) | 1.9 (≈ 578 µg/mL) | 2.49 (≈ 757 µg/mL) | 0.430 | 0.802 |  |  |  |  |  |  |  |  |  |  |  |  | 
3 | Nc1nc(O)c2ncn(COC(CO)CO)c2n1 [Compound 3, 9-[(1,3-dihydroxy-2-propoxy)methyl]guanine, reference compound] | -1.77 | 12.3 (≈ 3140 µg/mL) | 11 (≈ 2810 µg/mL) | 21.8 (≈ 5560 µg/mL) | 22.9 (≈ 5840 µg/mL) |  |  |  |  |  |  |  |  |  |  |  |  |  |  | 
4 | O=c1c2ncn(COCCO)c2nc2[nH]ccn12 [Compound 4, 3,9-dihydro-3-[(2-hydroxyethoxy)methyl]-9-oxo-5H-imidazol[1,2-a]purine] | -0.86 | 3.07 (≈ 765 µg/mL) | 2.72 (≈ 678 µg/mL) | 5.91 (≈ 1470 µg/mL) | 6.75 (≈ 1680 µg/mL) | 0.046 | 0.157 | 2.64 × 10^−3 | 1.98 × 10^−2 | 5.15 × 10^−3 | 2.72 × 10^−2 | 2.48 × 10^−3 | 2.05 × 10^−2 | 4.79 × 10^−3 | 2.56 × 10^−2 | 8.0 (±1) dm·mol^−1 | 6.0 (±1) dm·mol^−1 | 8.0 (±1) dm·mol^−1 | 6.0 (±1) dm·mol^−1 | 
5 | Cc1cn2c(=O)c3ncn(COCCO)c3nc2[nH]1 [Compound 5] | -0.688 | 18.7 (≈ 4920 µg/mL) | 13.1 (≈ 3450 µg/mL) | 26.6 (≈ 7000 µg/mL) | 32.4 (≈ 8530 µg/mL) | 0.173 | 0.274 |  |  |  |  |  |  |  |  |  |  |  |  | 
6 | Cc1cn2c(=O)c3nc(Br)n(COCCO)c3nc2[nH]1 [Compound 6] | -0.108 | 2.11 (≈ 722 µg/mL) | 1.05 (≈ 360 µg/mL) | 2.36 (≈ 807 µg/mL) | 2.59 (≈ 886 µg/mL) | 0.108 | 0.816 | 1.18 × 10^−3 | 2.66 × 10^−2 | 2.35 × 10^−3 | 5.94 × 10^−2 | 1.03 × 10^−3 | 2.57 × 10^−2 | 2.01 × 10^−3 | 3.23 × 10^−2 | 27 (±2) dm·mol^−1 | 26 (±2) dm·mol^−1 | 26 (±2) dm·mol^−1 | 17 (±1) dm·mol^−1 | 
7 | CC(C)(C)c1cn2c(=O)c3ncn(COCCO)c3nc2[nH]1 [Compound 7] | 0.616 | 3.08 (≈ 940 µg/mL) | 3.78 (≈ 1150 µg/mL) | 20.4 (≈ 6230 µg/mL) | 31.9 (≈ 9740 µg/mL) | 5.16 | 2.62 |  |  |  |  |  |  |  |  |  |  |  |  | An type of solubility diagram
8 | O=c1c2ncn(COCCO)c2nc2[nH]c(-c3ccccc3)cn12 [Compound 8] | 0.545 | 0.238 (≈ 77.4 µg/mL) | 0.334 (≈ 109 µg/mL) | 0.517 (≈ 168 µg/mL) | 0.728 (≈ 237 µg/mL) | 7.48 | 4.76 | 1.86 × 10^−4 | 2.22 × 10^−2 | 3.27 × 10^−4 | 3.57 × 10^−2 | 2.50 × 10^−4 | 2.60 × 10^−2 | 3.36 × 10^−4 | 3.60 × 10^−2 | 122 (±2) dm·mol^−1 | 113 (±10) | 107 (±8) | 105 (±6) dm·mol^−1 | 
9 | O=c1c2ncn(COCCO)c2nc2[nH]c(-c3ccc(Br)cc3)cn12 [Compound 10] | 0.549 | 0.364 (≈ 147 µg/mL) | 0.412 (≈ 167 µg/mL) | 0.898 (≈ 363 µg/mL) | 1.28 (≈ 517 µg/mL) | 2.14 | 1.65 |  |  |  |  |  |  |  |  |  |  |  |  | 
